Values of other authors in patent US11571385B2, “Self-emulsifiable composition, production method therefor, nanoemulsion, and production method therefor” (Kewpie Corporation, priority 2017, dated 2023).

Conditions: solubility in water, Japanese Pharmacopoeia class

Row | solubility | SMILES
1 | almost not soluble | COc1ccc2c(c1)c(CC(=O)OCC(=O)O)c(C)n2C(=O)c1ccc(Cl)cc1 [Acemetacin, acemetacin]
2 | almost not soluble | COc1ccc2c(c1)c(CC(=O)O)c(C)n2C(=O)c1ccc(Cl)cc1 [Indomethacin, indomethacin]
3 | almost not soluble | C=CC[C@@H]1/C=C(\C)C[C@H](C)C[C@H](OC)[C@H]2O[C@@](O)(C(=O)C(=O)N3CCCC[C@H]3C(=O)O[C@H](/C(C)=C/[C@@H]3CC[C@@H](O)[C@H](OC)C3)[C@H](C)[C@@H](O)CC1=O)[C@H](C)C[C@@H]2OC [Tacrolimus, tacrolimus]
